This is an account of results in ChEMBL document CHEMBL1212753, “Inducible APOBEC3G-Vif double stable cell line as a high-throughput screening platform to identify antiviral compounds” (Antimicrob Agents Chemother, 2010).

What is called EC50 is the concentration that produces a half-maximal response.

The nature of assay [1]: Inhibition of HIV Vif by replicating virus inhibition assay. More on the design: species or system Human immunodeficiency virus.
Assay [2] is described as follows: Inhibition of HIV Vif induced human cytidine-deaminase degradation in double transgenic HEK293 cells constitutively expressing enhanced yellow fluorescent protein expressor (EYFP-A3G) fusion and Tet-Off controllable Vif protein after 24 hrs by fluorimetric assay. The class given is cell-based, Human immunodeficiency virus.

As to `COc1ccccc1NC(=O)c1ccccc1Sc1ccc([N+](=O)[O-])cc1`, the EC50 in assay [1] was 3000 nM; in assay [2], 5.8 µM.
